Numbered stars: 1 amine (or outer) side, 2 acyl side, 3 side chain; on linkers, the order of the positions; unused ones are H or OH. Square brackets hold non-standard residues; d marks the D form. Peptide text beside a SMILES is read from it. Ala(1H-tetrazol-5-yl) = N[C@@H](Cc1nnn[nH]1)C(=O)O; X1 = O=C([C@H](CCc1nnn[nH]1)N[*:1])[*:2]; Nle = CCCC[C@H](N)C(=O)O

Five molecules from US20220202905A1, “COMPOSITION FOR PREVENTING OR TREATING NEUROTROPHIC KERATITIS WHICH CONTAINS PACAP PEPTIDE OR STABILIZED PACAP PEPTIDE” (SENJU PHARMACEUTICAL CO., LTD., priority 2019, published 2022) can be followed below.

Data set [1] addresses T1, PAC1R (Homo sapiens, UniProt P41586).
T1 construct: host or cells: CHO-K1
T1 sequence (P41586 21-468): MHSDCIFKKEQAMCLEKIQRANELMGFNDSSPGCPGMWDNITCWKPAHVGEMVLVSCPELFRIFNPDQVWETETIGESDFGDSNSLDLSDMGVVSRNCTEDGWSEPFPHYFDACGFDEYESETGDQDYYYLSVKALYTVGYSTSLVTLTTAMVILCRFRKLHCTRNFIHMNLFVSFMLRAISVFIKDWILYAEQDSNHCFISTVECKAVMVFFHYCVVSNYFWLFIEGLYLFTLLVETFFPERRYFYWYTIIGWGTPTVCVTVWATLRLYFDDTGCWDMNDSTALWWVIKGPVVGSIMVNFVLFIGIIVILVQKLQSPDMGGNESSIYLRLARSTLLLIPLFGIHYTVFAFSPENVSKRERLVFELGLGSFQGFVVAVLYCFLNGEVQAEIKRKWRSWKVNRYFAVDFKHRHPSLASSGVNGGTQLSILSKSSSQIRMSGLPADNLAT
Description: cAMP assay in PAC1R high-expressing CHO-K1 cell line. The note with it: cAMP inducing effect, CHO-K1 PAC1R high-expressing cells. It counts as cell-based. As for the experimental part:
(§1) The cells were cultured for 18 to 24 hours at 37° C. in a 5% C02 incubator, adhering the cells to the plate. […] A 5-fold dilution series was then prepared with the same Cell assay buffer and used in an assay. The cAMP assay was carried out using a Hit Hunter cAMP Assay for Biologics kit (product of DiscoveRx, Cat. No. 90-0075LM25), according to the included kit instructions. […] Next, the culture medium was removed from the CHO-K1 cell culture plate, washing was performed with PBS, and the peptide-cAMP antibody liquid mixtures were added to the cells and incubated for 30 minutes under a 5% CO2 atmosphere at 37° C. A working detection solution was then added and the culture plate was shielded from light with aluminum foil and incubated at 25° C. for 1 hour. After incubation, Solution A was added and the culture plate was shielded from light with aluminum foil and then incubated at 25° C. for 3 hours. […] The obtained value for the Relative Luminescence Unit (RLU) was analyzed with GraphPad Prism Ver 6.05 (product of Graph Pad) and the EC50 value was calculated for each peptide. […] FIG. 2 and Table 11. […] A 5-fold dilution series was then prepared with the same Cell assay buffer and used in an assay. […] A 5-fold dilution series was then prepared with the same Cell assay buffer and used in an assay.
For orientation: cAMP levels reflect the balance of adenylyl cyclase and phosphodiesterase activity.

Data set [2] addresses T2, VPAC1R (Homo sapiens, UniProt P32241).
T2 construct: host or cells: CHO-K1
T2 sequence (P32241 31-457): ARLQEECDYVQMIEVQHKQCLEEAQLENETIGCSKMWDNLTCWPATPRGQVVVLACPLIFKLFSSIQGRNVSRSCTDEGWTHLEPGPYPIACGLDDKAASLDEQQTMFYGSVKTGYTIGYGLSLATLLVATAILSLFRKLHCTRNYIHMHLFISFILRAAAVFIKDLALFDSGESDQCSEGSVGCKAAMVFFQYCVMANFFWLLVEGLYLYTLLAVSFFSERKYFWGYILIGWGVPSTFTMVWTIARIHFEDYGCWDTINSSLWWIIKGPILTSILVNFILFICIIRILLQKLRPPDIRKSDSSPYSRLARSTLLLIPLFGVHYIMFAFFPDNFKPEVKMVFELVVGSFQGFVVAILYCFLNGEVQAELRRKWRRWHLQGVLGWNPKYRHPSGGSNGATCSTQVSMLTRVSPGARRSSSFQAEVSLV
Description: cAMP assay in VPAC1R high-expressing CHO-K1 cell line. The format is cell-based. The following applies: Table 12; cAMP inducing effect, CHO-K1 VPAC1R high-expressing cells. As for the experimental part:
as §1

A short description of data set [3]: Peptide stability test, Tris buffer (pH 7.0), 60° C. storage, HPLC remaining rate. The format is physicochemical. The note with it: Table 7; 100 μM in Tris buffer pH 7.0. In a few lines: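 Peptides at 100 μM in Tris buffer (pH 7.0) stored 1 or 2 weeks at 60° C.; unstored sample kept at −30° C. as initial reference. Remaining peptide quantified by reversed-phase HPLC at 220 nm (formic acid/acetonitrile gradient, 40° C. column), as water-corrected remaining rate.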

Data set [4] addresses T3, PAC1 receptor (UniProt P41586 21-468, limits assumed).
T3 sequence (looked up): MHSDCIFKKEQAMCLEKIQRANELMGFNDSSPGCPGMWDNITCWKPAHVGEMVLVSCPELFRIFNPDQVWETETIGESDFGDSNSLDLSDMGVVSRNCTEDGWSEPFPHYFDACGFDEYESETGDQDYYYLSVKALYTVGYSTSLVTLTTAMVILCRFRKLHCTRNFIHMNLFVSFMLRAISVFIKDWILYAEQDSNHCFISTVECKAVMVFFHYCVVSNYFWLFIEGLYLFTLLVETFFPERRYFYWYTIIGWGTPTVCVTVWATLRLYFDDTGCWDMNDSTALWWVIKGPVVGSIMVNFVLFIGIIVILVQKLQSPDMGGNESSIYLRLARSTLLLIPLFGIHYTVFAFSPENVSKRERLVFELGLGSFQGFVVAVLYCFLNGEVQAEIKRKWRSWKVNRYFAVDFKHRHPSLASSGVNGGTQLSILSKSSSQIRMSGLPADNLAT
Nature of the data set: cell-based or functional assay.

In data set [5] the target is T4, VPAC1 receptor (UniProt P32241 31-457, limits assumed).
T4 sequence (looked up): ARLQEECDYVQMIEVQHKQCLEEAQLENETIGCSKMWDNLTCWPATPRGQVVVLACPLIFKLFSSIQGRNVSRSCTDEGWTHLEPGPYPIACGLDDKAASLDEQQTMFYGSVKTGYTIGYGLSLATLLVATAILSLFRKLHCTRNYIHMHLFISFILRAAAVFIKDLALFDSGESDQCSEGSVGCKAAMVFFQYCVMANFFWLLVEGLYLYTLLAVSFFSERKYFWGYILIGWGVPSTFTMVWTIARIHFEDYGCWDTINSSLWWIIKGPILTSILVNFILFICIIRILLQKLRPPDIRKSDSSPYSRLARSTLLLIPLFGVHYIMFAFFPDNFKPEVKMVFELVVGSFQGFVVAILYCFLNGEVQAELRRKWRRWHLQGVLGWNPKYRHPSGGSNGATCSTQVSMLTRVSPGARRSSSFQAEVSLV
Description: cell-based or functional assay.

`CCCC[C@H](NC(=O)[C@H](CCC(N)=O)NC(=O)[C@H](CCCCN)NC(=O)[C@H](CCCNC(=N)N)NC(=O)[C@H](Cc1ccc(O)cc1)NC(=O)[C@H](CCCNC(=N)N)NC(=O)[C@H](CO)NC(=O)[C@H](Cc1ccc(O)cc1)NC(=O)[C@H](CO)NC(=O)[C@H](Cc1nnn[nH]1)NC(=O)[C@@H](NC(=O)[C@H](Cc1ccccc1)NC(=O)[C@@H](NC(=O)CNC(=O)[C@H](Cc1nnn[nH]1)NC(=O)[C@H](CO)NC(=O)[C@@H](N)Cc1c[nH]cn1)[C@@H](C)CC)[C@@H](C)O)C(=O)N[C@@H](C)C(=O)N[C@H](C(=O)N[C@@H](CCCCN)C(=O)N[C@@H](CCCCN)C(=O)N[C@@H](Cc1ccc(O)cc1)C(=O)N[C@@H](CC(C)C)C(=O)N[C@@H](C)C(=O)N[C@@H](C)C(=O)N[C@H](C(=O)N[C@@H](CC(C)C)C(N)=O)C(C)C)C(C)C` [Peptide 6] (H-HS[Ala(1H-tetrazol-5-yl)]GIFT[Ala(1H-tetrazol-5-yl)]SYSRYRKQ[Nle]AVKKYLAAVL-NH2) yielded an EC50 in data set [1] (Table 11) of 0.079 nM.

Regarding `CC[C@H](C)[C@H](NC(=O)CNC(=O)[C@H](Cc1nnn[nH]1)NC(=O)[C@H](CO)NC(=O)[C@H](Cc1c[nH]cn1)NC(C)=O)C(=O)N[C@@H](Cc1ccccc1)C(=O)N[C@H](C(=O)N[C@@H](Cc1nnn[nH]1)C(=O)N[C@@H](CO)C(=O)N[C@@H](Cc1ccc(O)cc1)C(=O)N[C@@H](CO)C(=O)N[C@@H](CCCNC(=N)N)C(=O)N[C@@H](Cc1ccc(O)cc1)C(=O)N[C@@H](CCCNC(=N)N)C(=O)N[C@@H](CCCCN)C(=O)N[C@@H](CCc1nnn[nH]1)C(=O)N[C@@H](CC(C)C)C(=O)N[C@@H](C)C(=O)N[C@H](C(=O)N[C@@H](CCCCN)C(=O)N[C@@H](CCCCN)C(=O)N[C@@H](Cc1ccc(O)cc1)C(=O)N[C@@H](CC(C)C)C(=O)N[C@@H](C)C(=O)N[C@@H](C)C(=O)N[C@H](C(=O)N[C@@H](CC(C)C)C(N)=O)C(C)C)C(C)C)[C@@H](C)O` [Peptide 13] (Ac-HS[Ala(1H-tetrazol-5-yl)]GIFT[Ala(1H-tetrazol-5-yl)]SYSRYRK[X1]LAVKKYLAAVL-NH2), the EC50 in data set [2] was found to be 0.072 nM. In data set [3], the “remaining rate after correction for water, 60° C., 1 week preservation” value (from here on “remaining rate … 1 week preservation”) is listed as 97.4% and the “remaining rate after correction for water, 60° C., 2 weeks preservation” value (“remaining rate … 2 weeks preservation” for short) stood at 95.4%.

As to `CC[C@H](C)[C@H](NC(=O)CNC(=O)[C@H](Cc1nnn[nH]1)NC(=O)[C@H](CO)NC(=O)[C@H](Cc1c[nH]cn1)NC(C)=O)C(=O)N[C@@H](Cc1ccccc1)C(=O)N[C@H](C(=O)N[C@@H](Cc1nnn[nH]1)C(=O)N[C@@H](C)C(=O)N[C@@H](Cc1ccc(O)cc1)C(=O)N[C@@H](CO)C(=O)N[C@@H](CCCNC(=N)N)C(=O)N[C@@H](Cc1ccc(O)cc1)C(=O)N[C@@H](CCCNC(=N)N)C(=O)N[C@@H](CCCCN)C(=O)N[C@@H](CCC(N)=O)C(=O)N[C@@H](CC(C)C)C(=O)N[C@@H](C)C(=O)N[C@H](C(=O)N[C@@H](CCCCN)C(=O)N[C@@H](CCCCN)C(=O)N[C@@H](Cc1ccc(O)cc1)C(=O)N[C@@H](CC(C)C)C(=O)N[C@@H](C)C(=O)N[C@@H](C)C(=O)N[C@H](C(=O)N[C@@H](CC(C)C)C(N)=O)C(C)C)C(C)C)[C@@H](C)O` [Peptide 15] (Ac-HS[Ala(1H-tetrazol-5-yl)]GIFT[Ala(1H-tetrazol-5-yl)]AYSRYRKQLAVKKYLAAVL-NH2), in data set [3], the “remaining rate … 1 week preservation” value is given as 97.3% and the “remaining rate … 2 weeks preservation” value came out at 94.9%. This molecule gave an EC50 in data set [1] (Table 12) of 0.061 nM.

Regarding `CC[C@H](C)[C@H](NC(=O)CNC(=O)[C@H](Cc1nnn[nH]1)NC(=O)[C@H](CO)NC(=O)[C@H](Cc1c[nH]cn1)NC(C)=O)C(=O)N[C@@H](Cc1ccccc1)C(=O)N[C@H](C(=O)N[C@@H](Cc1nnn[nH]1)C(=O)N[C@@H](CO)C(=O)N[C@@H](Cc1ccc(O)cc1)C(=O)N[C@@H](CO)C(=O)N[C@@H](CCCNC(=N)N)C(=O)N[C@@H](Cc1ccc(O)cc1)C(=O)N[C@@H](CCCNC(=N)N)C(=O)N[C@@H](CCCCN)C(=O)N[C@@H](CCC(N)=O)C(=O)N[C@@H](CC(C)C)C(=O)N[C@@H](C)C(=O)N[C@@H](C)C(=O)N[C@@H](CCCCN)C(=O)N[C@@H](CCCCN)C(=O)N[C@@H](Cc1ccc(O)cc1)C(=O)N[C@@H](CC(C)C)C(=O)N[C@@H](C)C(=O)N[C@@H](C)C(=O)N[C@H](C(=O)N[C@@H](CC(C)C)C(N)=O)C(C)C)[C@@H](C)O` [Peptide 19] (Ac-HS[Ala(1H-tetrazol-5-yl)]GIFT[Ala(1H-tetrazol-5-yl)]SYSRYRKQLAAKKYLAAVL-NH2), in data set [2], it took 0.044 nM to reach a half-maximal effect (EC50). In data set [3], the “remaining rate … 1 week preservation” value came to 95.8% and the “remaining rate … 2 weeks preservation” value is listed as 92.7%.

B1: Peptide 34 (peptide)
peptide: Ac-HS[Ala(1H-tetrazol-5-yl)]AIFT[Ala(1H-tetrazol-5-yl)]SYSRYRKAAAVKKYLAAVL-NH2
SMILES: CC[C@H](C)[C@H](NC(=O)[C@H](C)NC(=O)[C@H](Cc1nnn[nH]1)NC(=O)[C@H](CO)NC(=O)[C@H](Cc1c[nH]cn1)NC(C)=O)C(=O)N[C@@H](Cc1ccccc1)C(=O)N[C@H](C(=O)N[C@@H](Cc1nnn[nH]1)C(=O)N[C@@H](CO)C(=O)N[C@@H](Cc1ccc(O)cc1)C(=O)N[C@@H](CO)C(=O)N[C@@H](CCCNC(=N)N)C(=O)N[C@@H](Cc1ccc(O)cc1)C(=O)N[C@@H](CCCNC(=N)N)C(=O)N[C@@H](CCCCN)C(=O)N[C@@H](C)C(=O)N[C@@H](C)C(=O)N[C@@H](C)C(=O)N[C@H](C(=O)N[C@@H](CCCCN)C(=O)N[C@@H](CCCCN)C(=O)N[C@@H](Cc1ccc(O)cc1)C(=O)N[C@@H](CC(C)C)C(=O)N[C@@H](C)C(=O)N[C@@H](C)C(=O)N[C@H](C(=O)N[C@@H](CC(C)C)C(N)=O)C(C)C)C(C)C)[C@@H](C)O
In the case of B1, in data set [4], the “EC50 (PAC1R), cAMP inducing effect” value stood at 0.21 nM. Moreover, in data set [5], the “EC50 (VPAC1R), cAMP inducing effect” value was 0.089 nM.

Broadly, the EC50 is the concentration at which the effect is half-maximal. Higher therefore signals lower potency in that assay.
